In assay [1] the target is T1, CLK1 (Homo sapiens, UniProt P49759).
T1 construct: GST-fusion or His-tag (not specified per kinase); purchased ProQinase GmbH; host or cells: Sf9 insect cells or E. coli (not specified per kinase)
The experiment in a line: Radiometric protein kinase assay (33PanQinase Activity Assay), CLK1. Format: biochemical. The following applies: class by IC50 on CLK1, from dose-response curves; read-out: Potency Class CLK1. The essentials: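 IC50 values were derived from 10-point dose-response curves (10 μM to 30 nM). Incubation: 60 min, 30 °C, 1% DMSO, radiolabelled ATP.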

Assay [2] concerns the target T2, DYRK1A (Homo sapiens, UniProt Q13627).
T2 construct: GST-fusion or His-tag (not specified per kinase); purchased ProQinase GmbH; host or cells: Sf9 insect cells or E. coli (not specified per kinase)
The experiment in a line: Radiometric protein kinase assay (33PanQinase Activity Assay), DYRK1A. Format: biochemical. The note with it: for IC50: class by IC50 on DYRK1A, from dose-response curves, read-out: Potency Class DYRK1A; for Selectivity Class DYRK1A vs. CLK1: ratio of IC50 on CLK1 over IC50 on DYRK1A; for Selectivity Class DYRK1A vs. DYRK1B: ratio of IC50 on DYRK1B over IC50 on DYRK1A. The method, boiled down: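 Recombinant human kinase, expressed in Sf9 or E. coli, in a radiometric [γ-33P]-ATP assay at 30 °C for 60 min. Compounds tested at 10 concentrations from 10 μM to 30 nM, 1% DMSO final. 33Pi incorporation measured by scintillation counting; IC50 from dose-response curves.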

Bounds are passed on as bounds.

T1 sequence (P49759 whole entry, the tested form may be a part): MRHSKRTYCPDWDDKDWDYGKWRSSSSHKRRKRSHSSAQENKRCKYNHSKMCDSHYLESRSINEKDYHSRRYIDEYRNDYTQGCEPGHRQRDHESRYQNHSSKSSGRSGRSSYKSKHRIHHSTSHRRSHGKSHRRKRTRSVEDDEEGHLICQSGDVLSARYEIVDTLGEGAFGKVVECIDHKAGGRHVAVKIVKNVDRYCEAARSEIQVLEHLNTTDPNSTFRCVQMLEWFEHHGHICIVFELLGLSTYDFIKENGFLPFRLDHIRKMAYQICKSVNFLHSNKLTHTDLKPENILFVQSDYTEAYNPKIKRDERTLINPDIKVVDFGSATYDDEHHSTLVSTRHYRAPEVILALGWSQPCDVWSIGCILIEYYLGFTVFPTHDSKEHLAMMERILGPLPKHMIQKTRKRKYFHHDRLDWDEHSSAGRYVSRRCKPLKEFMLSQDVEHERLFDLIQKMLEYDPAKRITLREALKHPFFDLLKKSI

As for `COC[C@@H](CC(C)C)NC1=N/C(=C\c2ccc3cnccc3c2)C(=O)N1` [Compound 60, (4Z)-4-(6-isoquinolylmethylene)-2-[[(1R)-1-(methoxymethyl)-3-methyl-butyl]amino]-1H-imidazol-5-one], the IC50 in assay [1] is over 0.05 µM. In addition, in assay [2], the IC50 was over 0.05 µM; the “Selectivity Class DYRK1A vs. CLK1” value is “II (ratio between 2 and 10 fold)”; the “Selectivity Class DYRK1A vs. DYRK1B” value was “III (ratio between 0.5 and 2 fold)”.

For `O=C1NC(NCc2ccccc2)=N/C1=C\c1ccc2cnccc2c1` [Compound 62, (4Z)-2-(benzylamino)-4-(6-isoquinolylmethylene)-1H-imidazol-5-one], the IC50 in assay [1] was over 0.05 µM. In addition, in assay [2], the IC50 was over 0.05 µM; the “Selectivity Class DYRK1A vs. CLK1” value is “V (ratio >0.1 fold (most CLK1- or DYRK1B-selective compounds))”; the “Selectivity Class DYRK1A vs. DYRK1B” value is “IV (ratio between 0.1 and 0.5 fold)”.

As for `COC[C@H](NC1=N/C(=C\c2ccc3cnccc3c2)C(=O)N1)c1ccccc1` [Compound 63, (4Z)-4-(6-isoquinolylmethylene)-2-[[(1R)-2-methoxy-1-phenyl-ethyl]amino]-1H-imidazol-5-one], the IC50 in assay [1] is over 0.05 µM. For the same compound, in assay [2], the IC50 was over 0.05 µM; the “Selectivity Class DYRK1A vs. CLK1” value was “IV (ratio between 0.1 and 0.5 fold)”; the “Selectivity Class DYRK1A vs. DYRK1B” value is “III (ratio between 0.5 and 2 fold)”.

Take `Cc1cnc(CNC2=N/C(=C\c3ccc4cnccc4c3)C(=O)N2)cn1` [Compound 64, (4Z)-4-(6-Isoquinolylmethylene)-2-[(5-methylpyrazin-2-yl)methylamino]-1H-imidazol-5-one]: the IC50 in assay [1] was over 0.05 µM. Further, in assay [2], the IC50 was over 0.05 µM; the “Selectivity Class DYRK1A vs. CLK1” value was “III (ratio between 0.5 and 2 fold)”; the “Selectivity Class DYRK1A vs. DYRK1B” value is “IV (ratio between 0.1 and 0.5 fold)”.

`Cn1ccc(NC2=N/C(=C\c3ccc4cnccc4c3)C(=O)N2)n1` [Compound 65, (4Z)-4-(6-Isoquinolylmethylene)-2-[(1-methylpyrazol-3-yl)amino]-1H-imidazol-5-one]: the IC50 in assay [1] is over 0.05 µM. In assay [2], the IC50 is over 0.05 µM; the “Selectivity Class DYRK1A vs. CLK1” value was “IV (ratio between 0.1 and 0.5 fold)”; the “Selectivity Class DYRK1A vs. DYRK1B” value is “III (ratio between 0.5 and 2 fold)”.

As for `O=C1NC(N[C@@H]2CCOC2)=N/C1=C\c1ccc2cnccc2c1` [Compound 66, (4Z)-4-(6-Isoquinolylmethylene)-2-[[(3R)-tetrahydrofuran-3-yl]amino]-1H-imidazol-5-one], the IC50 in assay [1] is over 0.05 µM. Moreover, in assay [2], the IC50 was over 0.05 µM; the “Selectivity Class DYRK1A vs. CLK1” value is “III (ratio between 0.5 and 2 fold)”; the “Selectivity Class DYRK1A vs. DYRK1B” value was “IV (ratio between 0.1 and 0.5 fold)”.

Turning to `O=C1NC(N[C@@H]2CCCOC2)=N/C1=C\c1ccc2cnccc2c1` [Compound 67, (4Z)-4-(6-isoquinolylmethylene)-2-[[(3R)-tetrahydropyran-3-yl]amino]-1H-imidazol-5-one], the IC50 in assay [1] is over 0.05 µM. Besides, in assay [2], the IC50 was over 0.05 µM; the “Selectivity Class DYRK1A vs. CLK1” value was “III (ratio between 0.5 and 2 fold)”; the “Selectivity Class DYRK1A vs. DYRK1B” value is “III (ratio between 0.5 and 2 fold)”.

On to `O=C1NC(NC23CC4CC(CC(C4)C2)C3)=N/C1=C\c1ccc2ncncc2c1` [Compound 68, (4Z)-2-(1-adamantylamino)-4-(quinazolin-6-ylmethylene)-1H-imidazol-5-one], for which, in assay [1], the IC50 is over 0.05 µM. Besides, in assay [2], the IC50 was over 0.05 µM; the “Selectivity Class DYRK1A vs. CLK1” value was “III (ratio between 0.5 and 2 fold)”; the “Selectivity Class DYRK1A vs. DYRK1B” value was “II (ratio between 2 and 10 fold)”.

With `COC[C@H](NC1=N/C(=C\c2ccc3nnccc3c2)C(=O)N1)c1ccccc1` [Compound 72, (4Z)-4-(cinnolin-6-ylmethylene)-2-[[(1R)-2-methoxy-1-phenyl-ethyl]amino]-1H-imidazol-5-one], in assay [1], the IC50 was over 0.05 µM. For the same compound, in assay [2], the IC50 is over 0.05 µM; the “Selectivity Class DYRK1A vs. CLK1” value was “III (ratio between 0.5 and 2 fold)”; the “Selectivity Class DYRK1A vs. DYRK1B” value was “III (ratio between 0.5 and 2 fold)”.

Turning to `COC[C@H](NC1=N/C(=C\c2ccc3cnncc3c2)C(=O)N1)c1ccccc1` [Compound 73, (4Z)-2-[[(1R)-2-methoxy-1-phenyl-ethyl]amino]-4-(phthalazin-6-ylmethylene)-1H-imidazol-5-one], the IC50 in assay [1] was over 0.05 µM. For the same compound, in assay [2], the IC50 is over 0.05 µM; the “Selectivity Class DYRK1A vs. CLK1” value is “III (ratio between 0.5 and 2 fold)”; the “Selectivity Class DYRK1A vs. DYRK1B” value is “III (ratio between 0.5 and 2 fold)”.

Regarding `O=C1NC(NC2CCCCC2)=N/C1=C\c1ccc2cnccc2c1` [Compound 75, (4Z)-2-(Cyclohexylamino)-4-(6-isoquinolylmethylene)-1H-imidazol-5-one], the IC50 in assay [1] is over 0.05 µM. Besides, in assay [2], the IC50 was over 0.05 µM; the “Selectivity Class DYRK1A vs. CLK1” value is “III (ratio between 0.5 and 2 fold)”; the “Selectivity Class DYRK1A vs. DYRK1B” value is “II (ratio between 2 and 10 fold)”.

Regarding `O=C1NC(NC2CCCCC2)=N/C1=C\c1ccc2ncncc2c1` [Compound 76, (4Z)-2-(cyclohexylamino)-4-(quinazolin-6-ylmethylene)-1H-imidazol-5-one], the IC50 in assay [1] is over 0.05 µM. Also, in assay [2], the IC50 was over 0.05 µM; the “Selectivity Class DYRK1A vs. CLK1” value was “III (ratio between 0.5 and 2 fold)”; the “Selectivity Class DYRK1A vs. DYRK1B” value is “II (ratio between 2 and 10 fold)”.

Consider `O=C1NC(NC2CCCCCC2)=N/C1=C\c1ccc2ncncc2c1` [Compound 77, (4Z)-2-(cycloheptylamino)-4-(quinazolin-6-ylmethylene)-1H-imidazol-5-one], for which the IC50 in assay [1] is over 0.05 µM. In assay [2], the IC50 was over 0.05 µM; the “Selectivity Class DYRK1A vs. CLK1” value is “II (ratio between 2 and 10 fold)”; the “Selectivity Class DYRK1A vs. DYRK1B” value is “II (ratio between 2 and 10 fold)”.

On to `COC[C@@H](CC(C)C)NC1=N/C(=C\c2ccc3ncncc3c2)C(=O)N1` [Compound 78, (4Z)-2-[[(1R)-1-(methoxymethyl)-3-methyl-butyl]amino]-4-(quinazolin-6-ylmethylene)-1H-imidazol-5-one], for which, in assay [1], the IC50 is over 0.05 µM. Further, in assay [2], the IC50 was over 0.05 µM; the “Selectivity Class DYRK1A vs. CLK1” value was “II (ratio between 2 and 10 fold)”; the “Selectivity Class DYRK1A vs. DYRK1B” value is “II (ratio between 2 and 10 fold)”.

For `CN1C(=O)/C(=C/c2ccc3nccnc3c2)N=C1NC1CCCCC1` [Compound 82, (5Z)-2-(Cyclohexylamino)-3-methyl-5-(quinoxalin-6-ylmethylene)imidazol-4-one], the IC50 in assay [1] is over 0.05 µM. In addition, in assay [2], the IC50 was over 0.05 µM; the “Selectivity Class DYRK1A vs. CLK1” value was “III (ratio between 0.5 and 2 fold)”; the “Selectivity Class DYRK1A vs. DYRK1B” value was “III (ratio between 0.5 and 2 fold)”.

As to `CN1C(=O)/C(=C/c2ccc3nccnc3c2)N=C1NC1CCCCCC1` [Compound 83, (5Z)-2-(Cycloheptylamino)-3-methyl-5-(quinoxalin-6-ylmethylene)imidazol-4-one], the IC50 in assay [1] is over 0.05 µM. Besides, in assay [2], the IC50 is over 0.05 µM; the “Selectivity Class DYRK1A vs. CLK1” value was “III (ratio between 0.5 and 2 fold)”; the “Selectivity Class DYRK1A vs. DYRK1B” value was “III (ratio between 0.5 and 2 fold)”.

Take `CN1C(=O)/C(=C/c2ccc3ncccc3c2)N=C1NC1CCCCC1` [Compound 84, (5Z)-2-(Cyclohexylamino)-3-methyl-5-(quinolin-6-ylmethylene)imidazol-4-one]: the IC50 in assay [1] was over 0.05 µM. Further, in assay [2], the IC50 is over 0.05 µM; the “Selectivity Class DYRK1A vs. CLK1” value is “III (ratio between 0.5 and 2 fold)”; the “Selectivity Class DYRK1A vs. DYRK1B” value is “III (ratio between 0.5 and 2 fold)”.

Turning to `CN1C(=O)/C(=C/c2ccc3ncccc3c2)N=C1NC1CCCCCC1` [Compound 85, (5Z)-2-(Cycloheptylamino)-3-methyl-5-(quinolin-6-ylmethylene)imidazol-4-one], in assay [1], the IC50 is over 0.05 µM. In assay [2], the IC50 is over 0.05 µM; the “Selectivity Class DYRK1A vs. CLK1” value was “IV (ratio between 0.1 and 0.5 fold)”; the “Selectivity Class DYRK1A vs. DYRK1B” value is “III (ratio between 0.5 and 2 fold)”.

As to `CN1C(=O)/C(=C/c2ccc3cnccc3c2)N=C1NC1CCCCC1` [Compound 86, (5Z)-2-(Cyclohexylamino)-3-methyl-5-(isoquinolin-6-ylmethylene)imidazol-4-one], in assay [1], the IC50 was over 0.05 µM. Further, in assay [2], the IC50 is over 0.05 µM; the “Selectivity Class DYRK1A vs. CLK1” value is “III (ratio between 0.5 and 2 fold)”; the “Selectivity Class DYRK1A vs. DYRK1B” value is “IV (ratio between 0.1 and 0.5 fold)”.

Consider `CN1C(=O)/C(=C/c2ccc3ncncc3c2)N=C1NC1CCCCC1` [Compound 88, (5Z)-2-(Cyclohexylamino)-3-methyl-5-(quinazolin-6-ylmethylene)imidazol-4-one], for which the IC50 in assay [1] is over 0.05 µM. In assay [2], the IC50 was over 0.05 µM; the “Selectivity Class DYRK1A vs. CLK1” value was “III (ratio between 0.5 and 2 fold)”; the “Selectivity Class DYRK1A vs. DYRK1B” value was “III (ratio between 0.5 and 2 fold)”.

For the compound `CN1C(=O)/C(=C/c2ccc3ncncc3c2)N=C1NC1CCCCCC1` [Compound 89, (5Z)-2-(Cycloheptylamino)-3-methyl-5-(quinazolin-6-ylmethylene)imidazol-4-one], the IC50 in assay [1] is over 0.05 µM. Besides, in assay [2], the IC50 is over 0.05 µM; the “Selectivity Class DYRK1A vs. CLK1” value is “III (ratio between 0.5 and 2 fold)”; the “Selectivity Class DYRK1A vs. DYRK1B” value was “III (ratio between 0.5 and 2 fold)”.
